Results reported in patent US11478451B1, “Macrocyclic chlorine substituted indole derivatives” (Bayer Aktiengesellschaft, priority 2017, dated 2022).
Structures can show the parent of a compound that is named as a salt. Where two headings read alike, the source gives them in different places.

How the values were obtained:
SUDHL10 cells [1] = assay: Induction of caspase-3/7 activity (Caspase-Glo 3/7), SUDHL10; assay type: cell-based; settings: EC50, median, SUDHL10, 3 h treatment
Summary of the method: (§1)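 Read-out: Caspase-Glo 3/7 signal, background-corrected against medium-only wells, taken after cells had been incubated with compounds for 3 h at 37 °C.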

AMO-1 cells = assay: Antiproliferation assay (CellTiter-Glo, 72 h), AMO-1; assay type: cell-based; settings: IC50, median, AMO-1, 72 h, read-out: Antiproli AMO-1 [M] median
Summary of the method: (§2)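 Treated cells sat 72 h in a humidified 37 °C incubator, outer wells unused, before CellTiter-Glo reagent and a 10 min wait preceded luminescence reading; identical measurement of a parallel day 0 plate defined time zero.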

SUDHL5 cells [2] = assay: Induction of cytotoxicity (CellTiter-Glo, 5 h), SUDHL5; settings: SUDHL5, 5 h
HMC-1-8 cells = assay: Antiproliferation assay (CellTiter-Glo, 72 h), HMC-1-8; assay type: cell-based; settings: IC50, median, HMC-1-8, 72 h, read-out: Antiproli HMC-1-8 [M] median
Summary of the method: as §2

SUDHL5 cells [3] = assay: Antiproliferation assay (CellTiter-Glo, 72 h), SUDHL5; assay type: cell-based; settings: IC50, median, SUDHL5, 72 h, read-out: Antiproli SUDHL5 [M] (median)
Summary of the method: as §2

SUDHL5 cells [4] = assay: Induction of caspase-3/7 activity (Caspase-Glo 3/7), SUDHL5; assay type: cell-based; settings: EC50, median, SUDHL5, 3 h treatment
Summary of the method: as §1

SUDHL10 cells [5] = assay: Induction of cytotoxicity (CellTiter-Glo, 5 h), SUDHL10; settings: SUDHL10, 5 h
[6] = read-out: Cytotox SUDHL5 [M] (median), IC50, median
[7] = read-out: Cytotox SUDHL10 [M] (median), IC50, median
[8] = Homo sapiens, SU-DHL10, 5 h, read-out: Cytotox SUDHL10 [M] (median), IC50, median

SMILES | EC50 (SUDHL10 cells [1]) [nM] | IC50 (SUDHL5 cells [3]) [M] | EC50 (SUDHL5 cells [4]) [nM] | IC50 (AMO-1 cells) [M] | IC50 (SUDHL5 cells [2]; [6]) [M] | IC50 (HMC-1-8 cells; 72 h) [M] | IC50 (SUDHL10 cells [5]; [7]) [M] | further results
CCc1c2c(nn1C)COCCC(F)(F)Cn1c(C(=O)O)c(CCCOc3cccc4cc(F)ccc34)c3ccc(Cl)c-2c31 (single isomer, unassigned) [Example 98, (+)-4-chloro-3-ethyl-11,11-difluoro-7-{3-[(6-fluoronaphthalen-1-yl)oxy]propyl}-2-methyl-2,10,11,12,13,15-hexahydropyrazolo[4′,3′:9,10][1,6]oxazacycloundecino[8,7,6-hi]indole-8-carboxylic acid] | – | – | – | – | – | – | – | EC50 (SUDHL10 cells [1]; listed as 098): 5000 nM; IC50 (AMO-1 cells; listed as 098): 6.9e-06 M; IC50 (SUDHL5 cells [2]; read-out: Cytotox SUDHL5 [M] (median), IC50, median, listed as 098): 7.3e-06 M; IC50 (HMC-1-8 cells; listed as 098): 5.9e-06 M; IC50 (SUDHL5 cells [3]; listed as 098): 2.2e-06 M; EC50 (SUDHL5 cells [4]; listed as 098): 6200 nM; IC50 (SUDHL10 cells [5]; read-out: Cytotox SUDHL10 [M] (median), IC50, median, listed as 098): 6.3e-06 M
CCc1c2c(nn1C)COCC1(CCn3c(C(=O)O)c(CCCOc4cccc5ccccc45)c4ccc(Cl)c-2c43)CC1 (single isomer, unassigned; enantiomer 2) [Example 74, (+)-4′-chloro-3′-ethyl-2′-methyl-7′-{3-[(naphthalen-1-yl)oxy]propyl}-2′,10′,11′,15′-tetrahydro-13′H-spiro[cyclopropane-1,12′-pyrazolo[4′,3′:9,10][1,6]oxazacycloundecino[8,7,6-hi]indole]-8′-carboxylic acid-N-ethylethanamine salt (Enantiomer 2)] | – | – | – | – | – | 9.4e-06 | – | EC50 (SUDHL10 cells [1]; Homo sapiens, SU-DHL10, 3 h): 570 nM; IC50 (AMO-1 cells; Homo sapiens, AMO1, 72 h): 1.3e-06 M; IC50 (SUDHL5 cells [2]; Homo sapiens, SU-DHL-5, 5 h, read-out: Cytotox SUDHL5 [M] (median), IC50, median): 4.1e-07 M; IC50 (SUDHL5 cells [3]; Homo sapiens, SU-DHL-5, 72 h): 7.6e-07 M; EC50 (SUDHL5 cells [4]; Homo sapiens, SU-DHL-5, 3 h): 140 nM; IC50 (SUDHL10 cells [5]; [8]): 4e-07 M
CCc1c2c(nn1C)CN(CC(F)F)CCCCn1c(C(=O)O)c(CCCOc3cccc4cc(F)ccc34)c3ccc(Cl)c-2c31 (single isomer, unassigned; enantiomer 2) [Example 76, (−)-4-chloro-14-(2,2-difluoroethyl)-3-ethyl-7-{3-[(6-fluoronaphthalen-1-yl)oxy]propyl}-2-methyl-10,11,12,13,14,15-hexahydro-2H-pyrazolo[3′,4′:8,9][1,6]diazacycloundecino[10,11,1-hi]indole-8-carboxylic acid N-ethylethanamine salt (Enantiomer 2)] | – | – | – | – | – | – | – | EC50 (SUDHL10 cells [1]; listed as 076): 260 nM; IC50 (AMO-1 cells; listed as 076): 2.4e-07 M; IC50 (SUDHL5 cells [2]; read-out: Cytotox SUDHL5 [M] (median), IC50, median, listed as 076): 3e-07 M; IC50 (HMC-1-8 cells; listed as 076): 4.4e-06 M; IC50 (SUDHL5 cells [3]; listed as 076): 3.2e-07 M; EC50 (SUDHL5 cells [4]; listed as 076): 240 nM; IC50 (SUDHL10 cells [5]; read-out: Cytotox SUDHL10 [M] (median), IC50, median, listed as 076): 4e-07 M
Cc1c2c(nn1C)COCCC(F)(F)Cn1c(C(=O)O)c(CCCOc3cccc4ccccc34)c3ccc(Cl)c-2c31 [Example 95, 4-chloro-11,11-difluoro-2,3-dimethyl-7-{3-[(naphthalen-1-yl)oxy]propyl}-2,10,11,12,13,15-hexahydropyrazolo[4′,3′:9,10][1,6]oxazacycloundecino[8,7,6-hi]indole-8-carboxylic acid N-ethylethanamine salt] | – | – | – | – | – | – | – | EC50 (SUDHL10 cells [1]; listed as 095): 870 nM; IC50 (AMO-1 cells; Homo sapiens, AMO1, 72 h): 9.7e-07 M; IC50 (SUDHL5 cells [2]; read-out: Cytotox SUDHL5 [M] (median), IC50, median, listed as 095): 7.7e-07 M; IC50 (HMC-1-8 cells; listed as 095): 7.2e-06 M; IC50 (SUDHL5 cells [3]; Homo sapiens, SU-DHL-5, 72 h): 1e-06 M; EC50 (SUDHL5 cells [4]; listed as 095): 550 nM; IC50 (SUDHL10 cells [5]; read-out: Cytotox SUDHL10 [M] (median), IC50, median, listed as 095): 4.5e-07 M
CCc1c2c(nn1C)COCC(O)CCn1c(C(=O)O)c(CCCOc3cccc4cc(F)ccc34)c3ccc(Cl)c-2c31 (centres unmarked) [Example 99, 4-chloro-3-ethyl-7-{3-[(6-fluoronaphthalen-1-yl)oxy]propyl}-12-hydroxy-2-methyl-2,10,11,12,13,15-hexahydropyrazolo[4′,3′:9,10][1,6]oxazacycloundecino[8,7,6-hi]indole-8-carboxylic acid-N-ethylethanamine salt] | 180 | – | 190 | – | 2.7e-07 | 5.9e-06 | 2.3e-07 | IC50 (AMO-1 cells; Homo sapiens, AMO1, 72 h): 5.2e-07 M; IC50 (SUDHL5 cells [3]; Homo sapiens, SU-DHL-5, 72 h): 2.6e-07 M
CCc1c2c(nn1C)CN(C)CCCn1c(C(=O)O)c(CCCOc3cccc4cc(F)ccc34)c3ccc(Cl)c-2c31 [Example 113, (+)-12-chloro-11-ethyl-1-{3-[(6-fluoronaphthalen-1-yl)oxy]propyl}-7,10-dimethyl-4,5,6,7,8,10-hexahydropyrazolo[3′,4′:7,8][1,5]diazecino[9,10,1-hi]indole-2-carboxylic acid N-ethylethanamine salt] | 360 | 2.1e-06 | 270 | 3.2e-07 | 3e-07 | – | 6.5e-07 | IC50 (HMC-1-8 cells): 3.7e-06 M

Second part, led by results:

EC50 (SUDHL10 cells [1]) [nM] | IC50 (SUDHL5 cells [3]) [M] | EC50 (SUDHL5 cells [4]) [nM] | SMILES | IC50 (AMO-1 cells) [M] | IC50 (SUDHL5 cells [2]; [6]) [M] | IC50 (HMC-1-8 cells; 72 h) [M] | IC50 (SUDHL10 cells [5]; [7]) [M] | further results
290 | 3.4e-07 | 290 | CCc1c2c(nn1C)CCCN(C)CCn1c(C(=O)O)c(CCCOc3cccc4cc(F)ccc34)c3ccc(Cl)c-2c31 (single isomer, unassigned) [Example 116, (+)-4-chloro-3-ethyl-7-{3-[(6-fluoronaphthalen-1-yl)oxy]propyl}-2,12-dimethyl-10,11,12,13,14,15-hexahydro-2H-pyrazolo[3′,4′:8,9][1,4]diazacycloundecino[10,11,1-hi]indole-8-carboxylic acid] | 2.1e-07 | 4.1e-07 | 2.3e-06 | 3.4e-07 | –
480 | 4.3e-07 | 280 | CCc1c2c(nn1C)CN(C)CC(F)(F)CCn1c(C(=O)O)c(CCCOc3cccc4cc(F)ccc34)c3ccc(Cl)c-2c31 (single isomer, unassigned) [Example 127, 4-chloro-3-ethyl-12,12-difluoro-7-{3-[(6-fluoronaphthalen-1-yl)oxy]propyl}-2,14-dimethyl-10,11,12,13,14,15-hexahydro-2H-pyrazolo[3′,4′:8,9][1,6]diazacycloundecino[10,11,1-hi]indole-8-carboxylic acid] | 5.8e-07 | 2.4e-07 | 2.2e-06 | 3.8e-07 | –
470 | 7.2e-07 | 390 | CCc1c2c(nn1C)COCC1CC1Cn1c(C(=O)O)c(CCCOc3cccc4cc(F)ccc34)c3ccc(Cl)c-2c31 (single isomer, unassigned; (+)) [Example 107] | 5.5e-07 | 4.6e-07 | 2.4e-06 | – | IC50 (SUDHL10 cells [5]; [8]): 5.9e-07 M
700 | 7.4e-07 | 660 | CCc1c2c(nn1C)CCCCCCn1c(C(=O)O)c(CCCOc3cccc4ccccc34)c3ccc(Cl)c-2c31 (single isomer, unassigned; enantiomer 2) [Example 53, (−) 4-chloro-3-ethyl-2-methyl-7-{3-[(naphthalen-1-yl)oxy]propyl}-10,11,12,13,14,15-hexahydro-2H-pyrazolo[4′,3′:4,5]azacycloundecino[3,2,1-hi]indole-8-carboxylic acid-N-ethylethanamine salt—Enantiomer 2] | 1.5e-06 | 4.8e-07 | 6.9e-06 | 9.7e-07 | –
210 | 3.1e-07 | 110 | CCc1c2c(nn1C)CCCN(CC(F)F)CCn1c(C(=O)O)c(CCCOc3cccc4cc(F)ccc34)c3ccc(Cl)c-2c31 [Example 119, (+)-4-chloro-12-(2,2-difluoroethyl)-3-ethyl-7-{3-[(6-fluoronaphthalen-1-yl)oxy]propyl}-2-methyl-10,11,12,13,14,15-hexahydro-2H-pyrazolo[3′,4′:8,9][1,4]diazacycloundecino[10,11,1-hi]indole-8-carboxylic acid N-ethylethanamine salt] | 3.6e-07 | 1.4e-07 | – | 2.9e-07 | IC50 (HMC-1-8 cells): 1.3e-06 M
